Measured values: patent publication US20240425490A1, “SULFAMIDE RIBONUCLEOTIDE REDUCTASE (RNR) INHIBITORS AND USES THEREOF” (Boundless Bio, Inc., priority 2021, published 2024)

Target: T1, RNR (RNR1:RNR2 1:1) (Homo sapiens, UniProt P23921)
T1 sequence (P23921 1-792): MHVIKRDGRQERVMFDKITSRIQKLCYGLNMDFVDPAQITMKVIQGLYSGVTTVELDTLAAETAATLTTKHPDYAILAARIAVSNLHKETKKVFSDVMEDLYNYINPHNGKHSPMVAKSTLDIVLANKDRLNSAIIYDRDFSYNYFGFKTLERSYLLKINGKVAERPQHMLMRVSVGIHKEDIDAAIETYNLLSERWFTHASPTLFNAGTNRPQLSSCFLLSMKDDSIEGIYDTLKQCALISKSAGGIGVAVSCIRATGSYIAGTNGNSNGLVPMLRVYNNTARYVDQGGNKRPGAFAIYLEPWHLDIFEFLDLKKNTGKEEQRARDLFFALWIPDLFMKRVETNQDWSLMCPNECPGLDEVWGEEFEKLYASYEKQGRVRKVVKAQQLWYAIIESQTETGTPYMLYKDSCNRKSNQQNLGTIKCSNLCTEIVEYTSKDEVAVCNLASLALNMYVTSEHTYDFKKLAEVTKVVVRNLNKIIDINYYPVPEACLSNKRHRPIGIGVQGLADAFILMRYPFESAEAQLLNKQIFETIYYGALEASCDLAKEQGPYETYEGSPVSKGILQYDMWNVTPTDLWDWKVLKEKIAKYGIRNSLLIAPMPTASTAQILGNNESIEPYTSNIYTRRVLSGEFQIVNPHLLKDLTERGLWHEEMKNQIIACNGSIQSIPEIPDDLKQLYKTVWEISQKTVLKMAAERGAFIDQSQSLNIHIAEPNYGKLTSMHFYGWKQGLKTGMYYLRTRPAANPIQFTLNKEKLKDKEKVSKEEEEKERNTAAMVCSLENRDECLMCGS
Test: RNR enzyme activity, rapid-fire mass spectrometry (RFMS) assay
Assay type: biochemical
Settings: RNR 50 nM, CDP 5 μM, ATP 1 mM, 37° C., 45 min, compounds screened up to 50 μM, read-out: RF/MS IC50
Protocol: A rapid-fire mass spectrometry (RFMS) assay was used to assess RNR enzyme activity using a 384 well plate and a robotic platform.
The plate layout included two validated reference compounds (Triapine (3-AP) and Hydroxyurea (HU)): • A dose response in duplicate; top concentration: 5 μM (3-AP) and 250 μM (HU), semi-log dilutions. • Spike wells in triplicate randomly spotted at four concentrations: • 250 μM, 100 μM, 30 μM and 2 μM for HU • 5 μM, 2 μM, 0.6 μM and 0.04 μM for 3-AP
First, the multidrop pipes were saturated for 30 minutes with enzymatic solution. Then 30 μL of Stop solution was distributed in column 24. Next, 15 μL of enzyme was distributed in column 1 to 24. Next, a pre-incubation step of 15 minutes at room temperature occurred, followed by distribution of 15 μL of substrate solution (column 1 to 24). Next, the plate was incubated for 45 minutes at 37° C. 30 μL of Stop solution was distributed to columns 1 to 23.
The final parameters for the enzyme reactions were: • Incubation: 37° C., 45 min • [CDP]: 5 μM; [ATP]: 1 mM; [NADPH]: No • [RNR] final: 50 nM with 1:1 (RNR1:RNR2) ratio • Final volume: 30 μL • Stop solution: 6% HCOOH containing 2 μM of 15

Compound: Cc1ccc(F)c([C@@H](C)[C@H](NS(=O)(=O)N2CCC3(CCCC3)CC2)c2n[nH]c(=O)o2)c1C [Example 71, N-((1S,2R)-2-(6-fluoro-2,3-dimethylphenyl)-1-(5-oxo-4,5-dihydro-1,3,4-oxadiazol-2-yl)propyl)-8-azaspiro[4.5]decane-8-sulfonamide]
- IC50: 100 to 1000 nM

Compound: Cc1ccc(F)c(C(C)[C@H](NS(=O)(=O)N2CCCC(C(C)C)C2)c2n[nH]c(=O)o2)c1C (stereo partly drawn) [Example 24, N-((1S)-2-(6-fluoro-2,3-dimethylphenyl)-1-(5-oxo-4,5-dihydro-1,3,4-oxadiazol-2-yl)propyl)-3-isopropylpiperidine-1-sulfonamide]
- IC50: 100 to 1000 nM

Compound: CC(=O)N(C)C1CCN(S(=O)(=O)N[C@H](c2n[nH]c(=O)o2)C(C)c2c(F)ccc(C)c2C)CC1 (stereo partly drawn) [Example 63, N-(1-(N-((1S)-2-(6-fluoro-2,3-dimethylphenyl)-1-(5-oxo-4,5-dihydro-1,3,4-oxadiazol-2-yl)propyl)sulfamoyl)piperidin-4-yl)-N-methylacetamide]
- IC50: 1000 to 10000 nM

Compound: Cc1ccc(F)c([C@@H](C)[C@H](NS(=O)(=O)N2CCCCC2C(=O)O)c2n[nH]c(=O)o2)c1C (stereo partly drawn) [Example 13, 1-(N-((1S,2R)-2-(6-fluoro-2,3-dimethylphenyl)-1-(5-oxo-4,5-dihydro-1,3,4-oxadiazol-2-yl)propyl)sulfamoyl)piperidine-2-carboxylic acid]
- IC50: 10000 to 100000 nM

Compound: Cc1ccc(F)c([C@@H](C)[C@H](NS(=O)(=O)N2CCCC(C(C)O)C2)c2n[nH]c(=O)o2)c1C (mixture of isomers) [Example 27, rac-N-((1R,2S)-2-(6-fluoro-2,3-dimethylphenyl)-1-(5-oxo-4,5-dihydro-1,3,4-oxadiazol-2-yl)propyl)-3-(1-hydroxyethyl)piperidine-1-sulfonamide]
- IC50: 100 to 1000 nM

Compound: Cc1ccc(F)c(C(C)[C@H](NS(=O)(=O)N2CCC(n3cccn3)CC2)c2n[nH]c(=O)o2)c1C (stereo partly drawn) [Example 96, N-((1S)-2-(6-fluoro-2,3-dimethylphenyl)-1-(5-oxo-4,5-dihydro-1,3,4-oxadiazol-2-yl)propyl)-4-(1H-pyrazol-1-yl)piperidine-1-sulfonamide]
- IC50: 1000 to 10000 nM

Compound: Cc1ccc(F)c(C(C)[C@H](NS(=O)(=O)N2CCC3(CCOCC3)CC2)c2n[nH]c(=O)o2)c1C (stereo partly drawn) [Example 91, N-((1S)-2-(6-fluoro-2,3-dimethylphenyl)-1-(5-oxo-4,5-dihydro-1,3,4-oxadiazol-2-yl)propyl)-3-oxa-9-azaspiro[5.5]undecane-9-sulfonamide]
- IC50: 100 to 1000 nM

Compound: Cc1ccc(F)c(C(C)[C@H](NS(=O)(=O)N2CCC(CN3CCCCC3)CC2)c2n[nH]c(=O)o2)c1C (stereo partly drawn) [Example 62, N-((1S)-2-(6-fluoro-2,3-dimethylphenyl)-1-(5-oxo-4,5-dihydro-1,3,4-oxadiazol-2-yl)propyl)-4-(piperidin-1-ylmethyl)piperidine-1-sulfonamide]
- IC50: 10000 to 100000 nM

Compound: CNC(=O)CC1CCN(S(=O)(=O)N[C@H](c2n[nH]c(=O)o2)C(C)c2c(F)ccc(C)c2C)CC1 (stereo partly drawn) [Example 66, 2-(1-(N-((1S)-2-(6-fluoro-2,3-dimethylphenyl)-1-(5-oxo-4,5-dihydro-1,3,4-oxadiazol-2-yl)propyl)sulfamoyl)piperidin-4-yl)-N-methylacetamide]
- IC50: 10000 to 100000 nM

Compound: Cc1ccc(F)c([C@@H](C)[C@H](NS(=O)(=O)N2C[C@H]3CCC[C@H]3C2)c2n[nH]c(=O)o2)c1C [Example 4, (3aR,6aS)-N-((1S,2R)-2-(6-Fluoro-2,3-dimethylphenyl)-1-(5-oxo-4,5-dihydro-1,3,4-oxadiazol-2-yl)propyl)hexahydrocyclopenta[c]pyrrole-2(1H)-sulfonamide]
- IC50: 100 to 1000 nM

Compound: Cc1ccc(F)c([C@@H](C)[C@H](NS(=O)(=O)N2CC3CCCC(C3)C2)c2n[nH]c(=O)o2)c1C [Example 7, N-((1S,2R)-2-(6-fluoro-2,3-dimethylphenyl)-1-(5-oxo-4,5-dihydro-1,3,4-oxadiazol-2-yl)propyl)-3-azabicyclo[3.3.1]nonane-3-sulfonamide]
- IC50: 10000 to 100000 nM
